Where “and” joins values, the source holds several entries; their conditions need not be identical. Identical values can stand only once. Entries after “also recorded” stand apart in the source; their conditions may differ. Like-named read-outs stand apart in the source and are kept apart here. Marks after values point to notes of the source that are not given here.
Key:
[1] = test system: esterase, rat hepatic microsomes; assay: Esterase hydrolysis in rat hepatic microsomes; assay type: in vitro ADME
Method: Esterase. Esterase activity was measured in rat hepatic microsomes essentially using the conditions described^41 with some minor modifications. Briefly, rat hepatic microsomes were incubated with 50 μM E2-alkyl ester. Since the rates of reaction are widely different for the various esters, the incubation times and enzyme concentration were varied accordingly to obtain linear kinetics. In every experiment, E16-1,2 was run concurrently to normalize the rate of hydrolysis of each compound. At several appropriate time points during the incubation (37° C.), 100 μL aliquots were quenched with a solution of 2 μg of the internal standard, 6-ketoestradiol in 33 μL of CH3CN, 33 μL of THF and 5 μL of glacial HOAc. The mixture was centrifuged and analyzed for the esterase-hydrolysis product (the corresponding E2-carboxylic acid) by reversed phase HPLC: E16-1,0; E15-1,0; E15-2,0; and E15-3,0 by HPLC with system H-29. Peaks for the hydrolysis product (E16-1,0 tR=10.7 min; E15-1,0 tR=6.9 min; E15-2,0 tR=9.9 min; E15-3,0 tR=14 min;) and the internal standard (tR=11.8 min for system H-29 and tR=8.8 min for system H-30 were quantified at 280 nm on the HPLC UV detector. The UV absorbance was converted to nmoles of product by comparison to standard curves and corrected for recovery of the internal standard, 6-ketoestradiol. The velocity of the reaction for each ester, in nmol product/min/mg protein, was then normalized to the ester, E16-1,2 and is shown in Table 1 as relative hydrolytic activity (RHA) The enzymatic velocity for the hydrolysis of E16-1,2 was 2.34±0.8 (S.D.) nmol product/min/mg protein over the various experiments. All compounds were tested in triplicate in at least 2 separate experiments

[2] = test system: human endometrial adenocarcinoma cells (Ishikawa); assay: Estrogenic potency in Ishikawa cells, induction of alkaline phosphatase (AlkP); assay type: cell-based; conditions: for Ishikawa cell AlkP (RSA): relative stimulatory activity = EC50 of E2 / EC50 of analog x 100, E2 = 100, 3 days, ± SD
Method: Estrogenic Potency in Ishikawa Cells. The estrogenic potency of the E2-analogs was determined in an estrogen bioassay, the induction of alkaline phosphatase (AlkP) in human endometrial adenocarcinoma cells (Ishikawa) grown in 96-well microtiter plates as we have previously described.^38 In short, the cells are grown in phenol red free medium with estrogen depleted (charcoal stripped) bovine serum in the presence or absence of varying amounts of the steroids, across a dose range of at least 6 orders of magnitude. […] After 3 days, the cells are washed, frozen and thawed, and then incubated with 5 mM p-nitrophenyl phosphate, a chromogenic substrate for the AlkP enzyme, at pH 9.8. To ensure linear enzymatic analysis, the plates are monitored kinetically for the production of p-nitrophenol at 405 nm. […] Each compound was analyzed in at least 3 separate experiments performed in duplicate.

[3] = target: T1, ER (ERα) in uterine cytosol (Rattus norvegicus, UniProt P06211); assay: Competitive binding to the estrogen receptor in rat uterine cytosol; conditions: for Estrogen Receptor (RBA): relative binding affinity, E2 = 100, rat uterine cytosol, 1 nM [3H]E2, ± SD; for RBA: relative to E2
T1 sequence (P06211 1-600): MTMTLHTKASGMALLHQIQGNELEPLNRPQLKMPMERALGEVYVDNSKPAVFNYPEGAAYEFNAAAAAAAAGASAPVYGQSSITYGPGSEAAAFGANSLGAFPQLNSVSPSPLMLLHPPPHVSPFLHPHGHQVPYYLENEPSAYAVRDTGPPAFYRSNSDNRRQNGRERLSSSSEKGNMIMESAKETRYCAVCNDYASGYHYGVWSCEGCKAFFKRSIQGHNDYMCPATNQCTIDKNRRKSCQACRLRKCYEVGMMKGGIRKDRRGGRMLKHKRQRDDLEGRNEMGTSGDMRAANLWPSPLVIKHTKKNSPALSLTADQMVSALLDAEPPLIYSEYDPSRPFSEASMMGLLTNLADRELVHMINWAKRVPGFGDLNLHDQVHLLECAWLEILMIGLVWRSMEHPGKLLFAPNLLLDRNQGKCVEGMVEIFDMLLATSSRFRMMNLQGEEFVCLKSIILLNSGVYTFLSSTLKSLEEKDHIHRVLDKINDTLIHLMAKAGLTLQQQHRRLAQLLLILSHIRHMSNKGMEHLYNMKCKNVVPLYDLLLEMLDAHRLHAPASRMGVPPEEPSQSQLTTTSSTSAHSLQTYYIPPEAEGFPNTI

[4] = target: T2, ligand binding domain (LBD) of human ERβ (M214-Q530) (Homo sapiens, UniProt Q92731); assay: Competitive binding to the LBD of human ERβ in E. coli lysates; conditions: RBA compared to E2 (=100), [3H]E2, ± SD
T2 construct: human ERβ (M214-Q530); made in house; host or cells: Escherichia coli (lysate used)

uterus of immature rats = assay: In vivo estrogen bioassay: uterine weight (uterotrophic assay, systemic); set-up: species or system rat; conditions: for uterotrophic response (in words) / Uterotrophic R.A × 10^3: 100 μg dose; for Uterotrophic R.A × 10^3: activity relative to E2, × 10^3
Method: In Vivo Estrogen Bioassays: Uterine Weight. […] Control animals received sesame oil. On the fourth day, the animals were killed, the uteri were removed, dissected, blotted and weighed. Except where noted, each compound was assayed in 2 separate experiments with n=5.

[5] = target: T3, ligand binding domain (LBD) of human ERα (M250-V595) (Homo sapiens, UniProt P03372); assay: Competitive binding to the LBD of human ERα in E. coli lysates; conditions: for selectivity / preference for ERα: ERα versus ERβ LBD; for ERα RBA: RBA compared to E2 (=100), LBD of human ERα in E. coli lysates, [3H]E2; for ERα RBA / ERα/ERβ (ratio of RBA): ± SD; for ERα/ERβ (ratio of RBA): human LBDs
T3 construct: human ERα (M250-V595); made in house; host or cells: Escherichia coli (lysate used)
T3 sequence (P03372 250-595): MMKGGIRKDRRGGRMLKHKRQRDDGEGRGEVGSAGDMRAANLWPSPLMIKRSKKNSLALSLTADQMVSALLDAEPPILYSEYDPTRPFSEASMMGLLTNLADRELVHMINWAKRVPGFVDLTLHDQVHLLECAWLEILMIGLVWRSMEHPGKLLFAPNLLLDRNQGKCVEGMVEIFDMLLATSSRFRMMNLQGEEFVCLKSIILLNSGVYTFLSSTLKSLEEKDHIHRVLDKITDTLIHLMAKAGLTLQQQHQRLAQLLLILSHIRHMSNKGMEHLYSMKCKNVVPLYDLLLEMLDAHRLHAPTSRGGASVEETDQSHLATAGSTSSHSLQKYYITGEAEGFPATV

[6] = test system: vagina of ovariectomized mice; assay: In vivo estrogen bioassay: vaginal reductases (local); set-up: species or system mouse; conditions: for Vaginal R.A × 10^3: activity relative to E2, × 10^3, 50 ng dose
Method: In Vivo Estrogen Bioassays: Vaginal reductases. […] The formazan product in the organic extract is quantified at 500 nm. Except where noted, each compound was assayed on at least 2 separate occasions with at least 5–6 replicates each time.

[7] = n.s. = not significantly different from the control

T2 sequence (Q92731 214-530): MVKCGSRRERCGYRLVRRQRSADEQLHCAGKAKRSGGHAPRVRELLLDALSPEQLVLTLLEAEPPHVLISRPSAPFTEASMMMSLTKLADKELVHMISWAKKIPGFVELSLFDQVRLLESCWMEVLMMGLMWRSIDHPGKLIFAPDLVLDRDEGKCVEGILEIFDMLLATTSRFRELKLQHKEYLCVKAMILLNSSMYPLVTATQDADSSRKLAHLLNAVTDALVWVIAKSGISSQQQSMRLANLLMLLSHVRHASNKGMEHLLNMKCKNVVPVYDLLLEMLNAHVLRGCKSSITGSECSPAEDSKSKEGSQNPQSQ

| Molecule | Ishikawa cell AlkP (RSA) [2] | Esterase (RHA) [1] | Estrogen Receptor (RBA) [3] | further results |
| --- | --- | --- | --- | --- |
| 2′-Fluoroethyl(3,17β-dihydroxyestra-1,3,5(10)-trien-15α-yl)formate [E15-1,2F1] | 3 ± 0.2 | – | – | Esterase (RHA) ([1]; relative hydrolytic activity in comparison to E16-1,2 (=100), 50 μM ester, 37° C., ± SD): 4.5 ± 0.1 |
| C[C@]12CC[C@@H]3c4ccc(O)cc4CC[C@H]3[C@@H]1CCC2=O [Compound E1, estrone, reference compound] | 4 ± 2 | – | – | – |
| C[C@]12CC[C@@H]3c4ccc(O)cc4CC[C@H]3[C@@H]1[C@@H](C(=O)O)C[C@@H]2O [E15-1,0, 3,17β-Dihydroxyestra-1,3,5(10)-trien-15α-carboxylic acid] | – | – | – | binding to the estrogen receptor (in words) [3]: does not bind to the estrogen receptor; also recorded: very low, not measurable; estrogenic activity in the Ishikawa cell assay (in words) [2]: nor does it have estrogenic activity; also recorded: very low, not measurable |
| CCOC(=O)[C@H]1C[C@H](O)[C@@]2(C)CC[C@@H]3c4ccc(O)cc4CC[C@H]3[C@H]12 [E15-1,2, Ethyl(3,17β-dihydroxyestra-1,3,5(10)-trien-15α-yl)formate] | 18 ± 10 | 2.3 ± 0.1 | 25 ± 12 | ERβ RBA [4]: 7 ± 2; uterotrophic response (in words) (uterus of immature rats): neither of these 15α-substituted estrogens produced a statistically significant uterotrophic response; also recorded: neither of these 15α-alkyl esters produce a statistically significant estrogenic response in the uterus; also recorded: inactive in the uterotrophic assay; uterotrophic stimulation at 300 μg dose, equivalent ng of E2 (uterus of immature rats; 300 μg dose, statistically significant (P<0.05)): 5 ng of E2; Uterotrophic R.A × 10^3 (uterus of immature rats; [7]): n.s.; selectivity / preference for ERα [5]: about 3 fold; ERα RBA [5]: 22 ± 5; ERα/ERβ (ratio of RBA) [5]: 3 ± 0.6; RBA [3]: 25%; RSA ([2]; relative to E2): 18%; Vaginal R.A × 10^3 [6]: 0.42; activity in the vaginal assay (in words) ([6]; mouse, in vivo): very active in the vaginal assay |
| CCCOC(=O)[C@H]1C[C@H](O)[C@@]2(C)CC[C@@H]3c4ccc(O)cc4CC[C@H]3[C@H]12 [E15-1,3, Propyl(3,17β-dihydroxyestra-1,3,5(10)-trien-15α-yl)formate] | 2 ± 1 | – | 17 ± 5 | – |
| CC(C)OC(=O)[C@H]1C[C@H](O)[C@@]2(C)CC[C@@H]3c4ccc(O)cc4CC[C@H]3[C@H]12 [E15-1,3i, Isopropyl(3,17β-dihydroxyestra-1,3,5(10)-trien-15α-yl)formate] | 0.3 ± 0.06 | 0.4 ± 0.1 | 5 ± 4 | RHA ([1]; rat, 50 μM): 0.3% |
| CCCCOC(=O)[C@H]1C[C@H](O)[C@@]2(C)CC[C@@H]3c4ccc(O)cc4CC[C@H]3[C@H]12 [E15-1,4, Butyl(3,17β-dihydroxyestra-1,3,5(10)-trien-15α-yl)formate] | 0.7 ± 0.4 | 7 ± 0.5 | 8 ± 2 | – |
| C[C@]12CC[C@@H]3c4ccc(O)cc4CC[C@H]3[C@@H]1[C@@H](CC(=O)O)C[C@@H]2O [E15-2,0, (3,17β-Dihydroxyestra-1,3,5(10)-trien-15α-yl)acetic acid] | 0.2 ± 0.2 | – | <0.1 | – |
| COC(=O)C[C@H]1C[C@H](O)[C@@]2(C)CC[C@@H]3c4ccc(O)cc4CC[C@H]3[C@H]12 [E15-2,1, Methyl(3,17β-dihydroxyestra-1,3,5(10)-trien-15α-yl)acetate] | 1 ± 1 | 31 ± 6 | 5 ± 3 | RBA [3]: 5% |
| CCOC(=O)C[C@H]1C[C@H](O)[C@@]2(C)CC[C@@H]3c4ccc(O)cc4CC[C@H]3[C@H]12 [E15-2,2, Ethyl(3,17β-dihydroxyestra-1,3,5(10)-trien-15α-yl)acetate] | 0.4 ± 0.5 | 71 ± 7 | 2 ± 0 | RBA [3]: 2% |
| C[C@]12CC[C@@H]3c4ccc(O)cc4CC[C@H]3[C@@H]1[C@@H](CCC(=O)O)C[C@@H]2O [E15-3,0, 3-(3,17β-Dihydroxyestra-1,3,5(10)-trien-15α-yl)propionic acid] | 0 | – | 0 | – |
| COC(=O)CC[C@H]1C[C@H](O)[C@@]2(C)CC[C@@H]3c4ccc(O)cc4CC[C@H]3[C@H]12 [E15-3,1, Methyl 3-(3,17β-dihydroxyestra-1,3,5(10)-trien-15α-yl)propionate] | 0 | 248 ± 26 | 0.8 ± 0.1 | – |
| CCOC(=O)CC[C@H]1C[C@H](O)[C@@]2(C)CC[C@@H]3c4ccc(O)cc4CC[C@H]3[C@H]12 [E15-3,2, Ethyl 3-(3,17β-dihydroxyestra-1,3,5(10)-trien-15α-yl)propionate] | 0 | 674 ± 14 | <0.1 | – |
| CCOC(=O)[C@@H]1C[C@H]2[C@@H]3CCc4cc(O)ccc4[C@H]3CC[C@]2(C)[C@H]1O [E16-1,2, reference compound] | – | – | – | enzymatic velocity for the hydrolysis ([1]; rat hepatic microsomes, 50 μM ester, 37° C., ± S.D. over the various experiments): 2.34±0.8 nmol product/min/mg protein; ERβ RBA [4]: 0.3 ± 0.1; selectivity / preference for ERα [5]: ~95 fold; ERα RBA [5]: 27 ± 6; ERα/ERβ (ratio of RBA) [5]: 95 ± 47 |
| C[C@]12CC[C@@H]3c4ccc(O)cc4CC[C@H]3[C@@H]1C[C@@H](C(=O)OCCF)[C@@H]2O [E16-1,2F1, reference compound] | – | – | – | uterotrophic response (in words) (uterus of immature rats): small but statistically significant response; Uterotrophic effect 100 μg dose (ng E2 equivalent) (uterus of immature rats; 100 μg total dose s.c. over 3 days, immature rats, compared to 5 ng E2, brackets = range, n.s. = not significantly different from the control): 2 ng E2 equivalent and 2^b ng E2 equivalent; Uterotrophic R.A × 10^3 (uterus of immature rats; [7]): 0.02; Vaginal effect 50 ng dose (pg E2 equivalent) ([6]; 50 ng instilled into the vagina, ovariectomized mice, compared to 50 pg E2, brackets = range): 21^b pg E2 equivalent; Vaginal R.A × 10^3 [6]: 0.42 |

— patent US7015211B2 (Yale University, priority 2003, dated 2006)
